Experimental data from US6486177B2, “Methods for treatment of cognitive and menopausal disorders with D-threo methylphenidate” (Celgene Corporation, priority 1995, dated 2002).

What was measured:
[1] = D-threo vs DL-threo methylphenidate vs placebo in patients in the context of ADD: objective tests and subjective observations; type: in vivo, human; conditions: for performance in objective tests: at the 6 hour time point, versus DL-threo racemate or placebo
From the text: The present inventors have observed that in the context of ADD, D-threo methylphenidate has a longer duration of action than DL-methylphenidate of at least six hours.
Response by patients with cognitive deficiencies described herein is generally determined by two types of measurements: objective measures of a patient's ability to concentrate and remain focused on a task such as performing a math test; and subjective scores of a patient's performance.

[2] = cited from earlier work
[3] = children suffering from ADHD; Clin. Pharmacol. Ther. 52: 561-568 (1992); cited from earlier work

In the case of `COC(=O)C(c1ccccc1)C1CCCCN1` (racemic) [DL-threo racemate, DL-threo-methylphenidate], the “performance in objective tests” value [1] is given as “did not perform better after that time period than those who received a placebo”, the “euphoric effect / potential for abuse” value ([2]; administered intravenously or through inhalation or ingestion) is given as “produces a euphoric effect” and the undesirable side effects ([2]; use of the racemate) is given as “anorexia, weight loss, insomnia, dizziness and dysphoria”.
In the case of `COC(=O)[C@@H](c1ccccc1)[C@@H]1CCCCN1` (single isomer, unassigned) [L isomer, L-threo-methylphenidate, reference compound], the “pharmacodynamic activity / pharmacological effectiveness” value [3] is given as “apparently makes no significant contribution to the pharmacological effectiveness of the drug”.
In the case of `COC(=O)[C@H](c1ccccc1)[C@H]1CCCCN1` [D-threo methylphenidate, D-threo-methylphenidate], the “persistence of beneficial effects” value ([1]; D-threo isomer alone versus in combination with the L-threo isomer) is reported as “persist for a longer period time when the D-threo isomer is administered alone than when it is administered in combination with the L-threo isomer”, the “performance in objective tests” value [1] is reported as “performed better in objective tests than patients who received the DL-threo racemate or a placebo” and the “subjective observations: duration of beneficial effects” value ([1]; same patients, versus DL-threo racemate) is reported as “experienced beneficial effects of the drug for longer times than did those who received the DL-threo racemate”. For the same compound, the “pharmacodynamic activity / pharmacological effectiveness” value [3] was “pharmacodynamic activity of DL-threo-methylphenidate resides in the D-threo isomer”.
